Assay results reported in patent US10045990B2, “ERBB4 inhibitors and methods of use thereof” (Arizona Board of Regents on behalf of Arizona State …, priority 2015, dated 2018).

Tested on: protein-tyrosine kinases from the human genome
Conditions: compared to the control slides (FIG. 9)
Protocol: NAPPA kinase microarrays we generated with virtually all protein-tyrosine kinases from the human genome. The coding sequence for each tyrosine kinase was clone into an expression plasmid and immobilized on the microarray surface, with one protein kinase per feature. After the microarray was expressed, any phosphorylation that occurred during the expression step was removed by a treatment with lambda phosphatase.
Unphosphorylated microarrays were then incubated with a kinase buffer (25 mM Tris-HCl (pH 7.5), 5 mM beta-glycerophosphate, 2 mM dithiothreitol (DTT), 0.1 mM Na3VO4, 10 mM MgCl2) supplemented with […] and/or kinase inhibitors (concentration ranging from 0-10 uM). The kinase autophosphorylation activity was measured through the levels of phosphorylation present in each feature and was detected by phospho-tyrosine antibody. […] Staurosporine is a pan kinase inhibitor used as a control.

CN[C@@H]1C[C@H]2O[C@@](C)([C@@H]1OC)n1c3ccccc3c3c4c(c5c6ccccc6n2c5c31)C(=O)NC4 [Staurosporine]
overall phosphorylation signal of the microarrays: drastically reduce
